Measurements from PubChem BioAssay (NCI).
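Growth conditions: 96-well plates. Treatment: test compound, 48 hours, 5 concentrations. Analysis: linear interpolation between bracketing concentrations; unreached endpoints set to highest concentration. GI50 marks 50% less growth. The concentration for full growth arrest is given as TGI.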

What was measured:
Assay in all cases: NCI-60 cell line screen, 48 h
A549 NSCLC = test system: A549 NSCLC
HCC-2998 colon = test system: HCC-2998 colon
HL-60(TB) leukemia = test system: HL-60(TB) leukemia
SNB-19 CNS = test system: SNB-19 CNS
SNB-75 CNS = test system: SNB-75 CNS
OVCAR-8 ovarian = test system: OVCAR-8 ovarian
TK-10 renal = test system: TK-10 renal
SK-MEL-5 melanoma = test system: SK-MEL-5 melanoma
SK-OV-3 ovarian = test system: SK-OV-3 ovarian
HOP-62 NSCLC = test system: HOP-62 NSCLC
SR leukemia = test system: SR leukemia
HT29 colon = test system: HT29 colon
IGROV1 ovarian = test system: IGROV1 ovarian
MDA-MB-231 breast = test system: MDA-MB-231 breast
RPMI-8226 leukemia = test system: RPMI-8226 leukemia
K-562 leukemia = test system: K-562 leukemia
PC-3 prostate = test system: PC-3 prostate
SN12C renal = test system: SN12C renal
U251 CNS = test system: U251 CNS
SK-MEL-2 melanoma = test system: SK-MEL-2 melanoma
DU-145 prostate = test system: DU-145 prostate
UACC-257 melanoma = test system: UACC-257 melanoma
EKVX NSCLC = test system: EKVX NSCLC
KM12 colon = test system: KM12 colon
ACHN renal = test system: ACHN renal
UO-31 renal = test system: UO-31 renal
OVCAR-4 ovarian = test system: OVCAR-4 ovarian
T-47D breast = test system: T-47D breast
MALME-3M melanoma = test system: MALME-3M melanoma
HS 578T breast = test system: HS 578T breast
UACC-62 melanoma = test system: UACC-62 melanoma
NCI-H23 lung = test system: NCI-H23 lung
MCF7 breast = test system: MCF7 breast
HCT-116 colon = test system: HCT-116 colon
HOP-92 NSCLC = test system: HOP-92 NSCLC
OVCAR-5 ovarian = test system: OVCAR-5 ovarian
M14 melanoma = test system: M14 melanoma
MDA-MB-435 = test system: MDA-MB-435
SF-295 CNS = test system: SF-295 CNS
SK-MEL-28 melanoma = test system: SK-MEL-28 melanoma
NCI/ADR-RES ovarian = test system: NCI/ADR-RES ovarian
SF-539 CNS = test system: SF-539 CNS
COLO 205 colon = test system: COLO 205 colon
NCI-H226 lung = test system: NCI-H226 lung
SF-268 CNS = test system: SF-268 CNS
CCRF-CEM leukemia = test system: CCRF-CEM leukemia
MOLT-4 leukemia = test system: MOLT-4 leukemia
HCT-15 colon = test system: HCT-15 colon
RXF 393 renal = test system: RXF 393 renal
NCI-H522 lung = test system: NCI-H522 lung
BT-549 breast = test system: BT-549 breast
CAKI-1 renal = test system: CAKI-1 renal
A498 renal = test system: A498 renal
786-0 renal = test system: 786-0 renal

`Oc1ccc(CSc2nnc(-c3ccc(Oc4ccccc4)cc3)o2)c2cccnc12` showed a GI50 (A549 NSCLC) of 1.68 µM, a TGI (A549 NSCLC) of over 100 µM and a GI50 (HCC-2998 colon) of 1.04 µM. It also gave a TGI (HCC-2998 colon) of over 100 µM, a GI50 (HL-60(TB) leukemia) of 0.668 µM and a TGI (HL-60(TB) leukemia) of over 100 µM. The GI50 (SNB-19 CNS) was 0.421 µM, the TGI (SNB-19 CNS) was over 100 µM and the GI50 (SNB-75 CNS) was 0.595 µM. The TGI (SNB-75 CNS) was 3.92 µM, the GI50 (OVCAR-8 ovarian) was 0.633 µM and the TGI (OVCAR-8 ovarian) was over 100 µM. It also gave a GI50 (TK-10 renal) of 2.45 µM, a TGI (TK-10 renal) of 69.8 µM and a GI50 (SK-MEL-5 melanoma) of 1.27 µM. The TGI (SK-MEL-5 melanoma) was over 100 µM, the GI50 (SK-OV-3 ovarian) was 1.92 µM and the TGI (SK-OV-3 ovarian) was 21.8 µM. For the same molecule, the GI50 (HOP-62 NSCLC) was 0.682 µM, the TGI (HOP-62 NSCLC) was 9.85 µM and the GI50 (SR leukemia) was 0.37 µM. For the same molecule, the TGI (SR leukemia) was over 100 µM, the GI50 (HT29 colon) was over 100 µM and the TGI (HT29 colon) was over 100 µM. It also gave a GI50 (IGROV1 ovarian) of 0.645 µM, a TGI (IGROV1 ovarian) of over 100 µM and a GI50 (MDA-MB-231 breast) of 1.49 µM. It also gave a TGI (MDA-MB-231 breast) of 79.9 µM, a GI50 (RPMI-8226 leukemia) of 0.458 µM and a TGI (RPMI-8226 leukemia) of over 100 µM. It also gave a GI50 (K-562 leukemia) of 0.368 µM, a TGI (K-562 leukemia) of over 100 µM and a GI50 (PC-3 prostate) of 0.561 µM. It also gave a TGI (PC-3 prostate) of over 100 µM, a GI50 (SN12C renal) of 2.13 µM and a TGI (SN12C renal) of over 100 µM. The GI50 (U251 CNS) was 0.46 µM, the TGI (U251 CNS) was 2.7 µM and the GI50 (SK-MEL-2 melanoma) was 3.56 µM. For the same molecule, the TGI (SK-MEL-2 melanoma) was 90.2 µM, the GI50 (DU-145 prostate) was 3.27 µM and the TGI (DU-145 prostate) was over 100 µM. The GI50 (UACC-257 melanoma) was 15.7 µM, the TGI (UACC-257 melanoma) was over 100 µM and the GI50 (EKVX NSCLC) was 0.515 µM. The TGI (EKVX NSCLC) was over 100 µM, the GI50 (KM12 colon) was 2.65 µM and the TGI (KM12 colon) was over 100 µM. It also gave a GI50 (ACHN renal) of 0.565 µM, a TGI (ACHN renal) of 2.14 µM and a GI50 (UO-31 renal) of 0.373 µM. The TGI (UO-31 renal) was 2.38 µM, the GI50 (OVCAR-4 ovarian) was 1.77 µM and the TGI (OVCAR-4 ovarian) was 8.01 µM. For the same molecule, the GI50 (T-47D breast) was 2.17 µM, the TGI (T-47D breast) was 9.12 µM and the GI50 (MALME-3M melanoma) was 4.54 µM. The TGI (MALME-3M melanoma) was over 100 µM, the GI50 (HS 578T breast) was 0.612 µM and the TGI (HS 578T breast) was 27.4 µM. For the same molecule, the GI50 (UACC-62 melanoma) was 2.41 µM, the TGI (UACC-62 melanoma) was over 100 µM and the GI50 (NCI-H23 lung) was 0.739 µM. For the same molecule, the TGI (NCI-H23 lung) was 44.9 µM, the GI50 (MCF7 breast) was 0.497 µM and the TGI (MCF7 breast) was over 100 µM. For the same molecule, the GI50 (HCT-116 colon) was 0.42 µM, the TGI (HCT-116 colon) was 4.4 µM and the GI50 (HOP-92 NSCLC) was 1.41 µM. It also gave a TGI (HOP-92 NSCLC) of 24.9 µM, a GI50 (OVCAR-5 ovarian) of 8.02 µM and a TGI (OVCAR-5 ovarian) of over 100 µM. It also gave a GI50 (M14 melanoma) of 0.621 µM, a TGI (M14 melanoma) of over 100 µM and a GI50 (MDA-MB-435) of 0.713 µM. For the same molecule, the TGI (MDA-MB-435) was over 100 µM, the GI50 (SF-295 CNS) was 0.877 µM and the TGI (SF-295 CNS) was 7.49 µM. It also gave a GI50 (SK-MEL-28 melanoma) of 4.8 µM, a TGI (SK-MEL-28 melanoma) of over 100 µM and a GI50 (NCI/ADR-RES ovarian) of 0.489 µM. For the same molecule, the TGI (NCI/ADR-RES ovarian) was 84.6 µM, the GI50 (SF-539 CNS) was 0.689 µM and the TGI (SF-539 CNS) was 55.5 µM. For the same molecule, the GI50 (COLO 205 colon) was over 100 µM, the TGI (COLO 205 colon) was over 100 µM and the GI50 (NCI-H226 lung) was 15.3 µM. For the same molecule, the TGI (NCI-H226 lung) was over 100 µM, the GI50 (SF-268 CNS) was 0.659 µM and the TGI (SF-268 CNS) was over 100 µM. For the same molecule, the GI50 (CCRF-CEM leukemia) was 0.498 µM, the TGI (CCRF-CEM leukemia) was over 100 µM and the GI50 (MOLT-4 leukemia) was 1.28 µM. The TGI (MOLT-4 leukemia) was over 100 µM, the GI50 (HCT-15 colon) was 0.368 µM and the TGI (HCT-15 colon) was over 100 µM. For the same molecule, the GI50 (RXF 393 renal) was 3.55 µM, the TGI (RXF 393 renal) was over 100 µM and the GI50 (NCI-H522 lung) was 4.99 µM. It also gave a TGI (NCI-H522 lung) of over 100 µM, a GI50 (BT-549 breast) of 0.905 µM and a TGI (BT-549 breast) of over 100 µM. For the same molecule, the GI50 (CAKI-1 renal) was 1.88 µM, the TGI (CAKI-1 renal) was over 100 µM and the GI50 (A498 renal) was 8.41 µM. It also gave a TGI (A498 renal) of over 100 µM, a GI50 (786-0 renal) of 1.02 µM and a TGI (786-0 renal) of 5.88 µM.
